# Assay results reported in ChEMBL document CHEMBL1157905, “Synthesis and antibacterial activities of a novel alkylide: 3-O-(3-aryl-2-propargyl) and 3-O-(3-aryl-2-propenyl)clarithromycin derivatives” (2010).
# Assays:
# Format in all cases: functional
# Staphylococcus aureus [1] = experiment: Antimicrobial activity against erythromycin-susceptible Staphylococcus aureus ATCC 29213
# Staphylococcus aureus [2] = experiment: Antimicrobial activity against erythromycin-susceptible Staphylococcus aureus PU32 encoded by erm(A) gene
# Streptococcus pneumoniae [3] = experiment: Antimicrobial activity against erythromycin-resistant Streptococcus pneumoniae PU13 encoded by erm and mef gene
# Staphylococcus aureus [4] = experiment: Antimicrobial activity against erythromycin-susceptible Staphylococcus aureus PU19 encoded by erm(A) gene
# Streptococcus pneumoniae [5] = experiment: Antimicrobial activity against erythromycin-resistant Streptococcus pneumoniae PU11 encoded by erm and mef gene
# Streptococcus pneumoniae [6] = experiment: Antimicrobial activity against erythromycin-susceptible Streptococcus pneumoniae ATCC 49619
Compound,MIC (Staphylococcus aureus [1]),MIC (Staphylococcus aureus [2]),MIC (Streptococcus pneumoniae [3]),MIC (Staphylococcus aureus [4]),MIC (Streptococcus pneumoniae [5]),MIC (Streptococcus pneumoniae [6])
CC[C@H]1OC(=O)[C@H](C)[C@@H](O/C=C\Cc2cncc3ccccc23)[C@H](C)[C@@H](O[C@@H]2O[C@H](C)C[C@H](N(C)C)[C@H]2O)[C@](C)(OC)C[C@@H](C)/C(=N\OCc2ccccc2Cl)[C@H](C)[C@H]2OC(=O)O[C@@]21C,8 µg/mL,32 µg/mL,32 µg/mL,64 µg/mL,32 µg/mL,0.25 µg/mL
CC[C@H]1OC(=O)[C@H](C)[C@@H](O[C@H]2C[C@@](C)(OC)[C@@H](O)[C@H](C)O2)[C@H](C)[C@@H](O[C@@H]2O[C@H](C)C[C@H](N(C)C)[C@H]2O)[C@](C)(O)C[C@@H](C)CN(C)[C@H](C)[C@@H](O)[C@]1(C)O [AZITHROMYCIN],0.5 µg/mL,64 µg/mL,128 µg/mL,> 256 µg/mL,128 µg/mL,0.064 µg/mL
CC[C@H]1OC(=O)[C@H](C)[C@@H](OC/C=C/c2cncc3ccccc23)[C@H](C)[C@@H](O[C@@H]2O[C@H](C)C[C@H](N(C)C)[C@H]2O)[C@](C)(OC)C[C@@H](C)/C(=N\OCc2ccccc2Cl)[C@H](C)[C@H]2OC(=O)O[C@@]21C,64 µg/mL,64 µg/mL,32 µg/mL,64 µg/mL,32 µg/mL,4 µg/mL
CC[C@H]1OC(=O)[C@H](C)[C@@H](O[C@H]2C[C@@](C)(OC)[C@@H](O)[C@H](C)O2)[C@H](C)[C@@H](O[C@@H]2O[C@H](C)C[C@H](N(C)C)[C@H]2O)[C@](C)(OC)C[C@@H](C)C(=O)[C@H](C)[C@@H](O)[C@]1(C)O [CLARITHROMYCIN],0.5 µg/mL,128 µg/mL,128 µg/mL,> 256 µg/mL,128 µg/mL,0.032 µg/mL
